pIC50: −log10 of the molar value.
Columns and labels:
[1] = target: Baculoviral IAP repeat-containing protein 3 (Homo sapiens, UniProt Q13489); assay: (§1) Fluorescence Polarization-Based Assays: An in vitro fluorescence polarization (FP) based binding assay was used to test the binding ability of the compounds of the present invention to certain IAP proteins (Nikolovska-Coleska et al., Anal. Biochem. 332:261-73 (2004)). he FP-based assay for XIAP BIR3 protein was described in detail previously (Nikolovska-Coleska et al., Anal. Biochem. 332:261-73 (2004)). Briefly, 5-carboxyfluorescein was coupled to the lysine side chain of a mutated Smac peptide with the sequence (AbuRPFK-Fam) and this fluorescently tagged peptide (named SM5F) was used as the fluorescent tracer in FP-based binding assay to XIAP BIR3.
[2] = target: Baculoviral IAP repeat-containing protein 2 (Homo sapiens, UniProt Q13490); assay: as §1
Baculoviral IAP repeat-containing protein 2, sequence (Q13490 whole entry, looked up, change not shown): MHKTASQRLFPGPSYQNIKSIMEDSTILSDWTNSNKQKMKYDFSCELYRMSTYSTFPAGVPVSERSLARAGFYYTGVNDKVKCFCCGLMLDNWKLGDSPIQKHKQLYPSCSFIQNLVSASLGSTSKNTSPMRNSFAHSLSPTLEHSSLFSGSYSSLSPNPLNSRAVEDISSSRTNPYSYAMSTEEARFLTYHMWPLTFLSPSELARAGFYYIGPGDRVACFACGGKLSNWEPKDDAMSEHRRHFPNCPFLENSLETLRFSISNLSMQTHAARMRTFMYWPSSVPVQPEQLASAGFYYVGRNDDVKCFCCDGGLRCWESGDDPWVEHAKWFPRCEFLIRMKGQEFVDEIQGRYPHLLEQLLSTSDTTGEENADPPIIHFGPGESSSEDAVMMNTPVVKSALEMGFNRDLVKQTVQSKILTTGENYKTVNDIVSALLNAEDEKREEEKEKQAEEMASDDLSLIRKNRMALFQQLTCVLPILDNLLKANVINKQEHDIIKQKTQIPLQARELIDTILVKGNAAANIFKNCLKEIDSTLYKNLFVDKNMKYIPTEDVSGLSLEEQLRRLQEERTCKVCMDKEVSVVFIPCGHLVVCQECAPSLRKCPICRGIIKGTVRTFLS

Baculoviral IAP repeat-containing protein 3, sequence (Q13489 whole entry, looked up, stated change not applied): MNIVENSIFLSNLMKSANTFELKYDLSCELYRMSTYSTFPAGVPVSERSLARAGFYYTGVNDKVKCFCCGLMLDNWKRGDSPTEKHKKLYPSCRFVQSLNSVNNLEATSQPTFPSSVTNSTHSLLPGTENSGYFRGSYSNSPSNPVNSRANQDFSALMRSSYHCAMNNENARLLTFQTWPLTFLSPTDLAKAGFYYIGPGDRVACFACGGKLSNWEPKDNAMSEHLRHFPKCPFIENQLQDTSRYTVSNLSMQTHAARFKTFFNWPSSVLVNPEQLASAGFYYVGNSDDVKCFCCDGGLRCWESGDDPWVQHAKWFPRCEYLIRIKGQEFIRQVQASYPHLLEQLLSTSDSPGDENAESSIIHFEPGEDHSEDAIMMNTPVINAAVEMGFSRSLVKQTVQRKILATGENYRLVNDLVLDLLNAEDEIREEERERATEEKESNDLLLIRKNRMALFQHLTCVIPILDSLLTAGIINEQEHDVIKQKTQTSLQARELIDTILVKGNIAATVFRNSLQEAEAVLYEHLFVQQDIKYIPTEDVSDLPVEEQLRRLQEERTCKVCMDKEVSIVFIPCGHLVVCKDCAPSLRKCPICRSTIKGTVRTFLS

SMILES | pIC50 [1] | pIC50 [2]
CN[C@@H](C)C(=O)N[C@H]1CN(C(=O)CCCCCCCCCCC(=O)N2CC[C@H]3CC[C@@H](c4nc5c(-c6ccccc6)cccc5[nH]4)N3C(=O)[C@@H](NC(=O)[C@H](C)NC)C2)CC[C@H]2CC[C@@H](c3nc4c(-c5ccccc5)cccc4[nH]3)N2C1=O | > 7.30 | –
C=CC(C=C)c1cccc2[nH]c([C@@H]3CC[C@@H]4CCN(C(=O)CCCCCCCCCCC(=O)N5CC[C@H]6CC[C@@H](c7nc8c(-c9ccccc9)cccc8[nH]7)N6C(=O)[C@@H](NC(=O)[C@H](C)NC)C5)C[C@H](NC(=O)[C@H](C)NC)C(=O)N43)nc12 | – | > 7.30

— ChEMBL document CHEMBL3639255, “Bivalent diazo bicyclic Smac mimetics and the uses thereof” (2014)
